The Ki is the dissociation constant of the complex between target and ligand, obtained from inhibition or displacement.

Structures are written as SMILES.

In assay [1] the target is T1, KOR (Homo sapiens, UniProt P41145). As to the kind of experiment: Opioid secondary binding, KOR (Tables 4, 5, 8, 9). The following applies: Opioid secondary binding activity for Formula 10 analogs; read-out: KOR, Ki.
In a further assay the target is MOR (Homo sapiens, UniProt P35372). As to the kind of experiment: Opioid secondary binding, MOR (Tables 4, 5, 8). As to conditions: Opioid secondary binding activity for Formula 10 analogs; read-out: MOR, Ki.
Assay [2] addresses T1, KOR. As to the kind of experiment: [35S]GTPγS binding functional agonist assay on membranes of CHO cells expressing hKOR (reference agonist U69593). As to conditions: for KOR agonist (average percent efficacy relative to cognate agonist): test compound at 10 micromolar, N=4, reference agonist = 100%, CHO-cell line expressing hKOR; for Emax values relative to U69593: [35S]GTPγS data-fit top relative to reference agonist U69593. It is filed as biochemical. Further details: expressed in transfected cells; host or cells: CHO cells, stably transfected; crude membrane fractions. The method, then: The compounds prepared herein were tested for bioactivity with opioid receptors. Agonist assays: Data represent the percent efficacy (relative to cognate agonist) of the test compound at 10 micromolar. The response to a saturating concentration of a reference antagonist or to vehicle (usually none or negligible) is set to 0%. […] The response inhibition elicited by a saturating concentration of reference antagonist is set to 100%; the response inhibition (usually none or negligible) elicited by vehicle is set to 0%. The following tables provide data related to the bioactivity for opioid receptors of the compounds described herein.
Table 6 provides data that represent the average percent efficacy (N=4; relative to cognate agonist) of the test compound at 10 micromolar concentration. The response to a saturating concentration of cognate/reference agonist is set to 100%; the response to a saturating concentration of a reference antagonist or to vehicle (usually none or negligible) is set to 0%. All functional assays are performed on stably transfected CHO-cell lines expressing hKOR, hMOR or hDOR.
(§1) Serial dilutions of the test and reference compounds are made in binding buffer at 2× assay concentration (final assay concentrations ranging from 0.1 nM to 10 μM). Crude membrane fractions (1.8 to 3.5 cm2/well) (prepared from 10-cm plates by harvesting PBS-rinsed monolayers, resuspending and lysing in chilled, hypotonic 50 mM Tris-HCl, pH 7.4, centrifuging at 20,000×g, decanting the supernatant and storing at −80 degrees centigrade; typically, one 10-cm plate provides sufficient material for 24 wells) are resuspended in 1.2 ml of assay buffer containing 20 μM GDP, wheat germ agglutinin (WGA)-coated scintillation proximity beads (2.4 mg), and [35S]GTPγS (300 pM final). The suspension is then added (50 μl/well) to 50 μl of the 2× test or reference compounds (each concentration assayed in triplicate) in flexible transparent PET 96-well plates. The reaction plate is sealed and incubated for 90 min at room temperature, then centrifuged for 5 min at 216×g, and finally loaded into a Wallac MicroBeta TriLux counter. Non-specific [35S]GTPγS binding is assessed at the maximum concentration of reference agonist in the presence of 10 μM antagonist. The background signal is measured at 10 μM reference agonist in the presence of 10 μM unlabeled GTPγS. Raw data (dpm) representing total [35S]GTPγS binding (i.e., specific+non-specific binding) are calculated as a percentage of the maximum response by the reference agonist (in this case U69593).
as §1, with “GTPγS.” for “GTPγS. Raw data (dpm) representing total [35S]GTPγS binding (i.e., specific+non-specific binding) are calculated as a percentage of the maximum response by the reference agonist (in this case U69593).”
Background: GTPγS is a poorly hydrolysed GTP analogue; its binding reports G protein activation.

The target in another assay is DOR (Homo sapiens, UniProt P41143). As to the kind of experiment: Opioid secondary binding, DOR (Table 4). The following applies: Opioid secondary binding activity for Formula 10 analogs.
DOR, sequence (P41143 whole entry): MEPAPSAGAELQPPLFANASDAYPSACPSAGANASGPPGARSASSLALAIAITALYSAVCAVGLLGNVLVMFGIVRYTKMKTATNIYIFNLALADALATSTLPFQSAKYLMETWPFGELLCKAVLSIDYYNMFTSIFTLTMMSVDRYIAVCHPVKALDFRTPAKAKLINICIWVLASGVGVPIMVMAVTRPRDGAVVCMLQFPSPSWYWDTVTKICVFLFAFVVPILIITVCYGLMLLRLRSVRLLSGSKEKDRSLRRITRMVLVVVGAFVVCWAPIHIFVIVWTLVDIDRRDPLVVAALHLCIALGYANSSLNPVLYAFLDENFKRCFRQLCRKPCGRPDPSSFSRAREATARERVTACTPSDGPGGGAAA

T1 sequence (P41145 whole entry): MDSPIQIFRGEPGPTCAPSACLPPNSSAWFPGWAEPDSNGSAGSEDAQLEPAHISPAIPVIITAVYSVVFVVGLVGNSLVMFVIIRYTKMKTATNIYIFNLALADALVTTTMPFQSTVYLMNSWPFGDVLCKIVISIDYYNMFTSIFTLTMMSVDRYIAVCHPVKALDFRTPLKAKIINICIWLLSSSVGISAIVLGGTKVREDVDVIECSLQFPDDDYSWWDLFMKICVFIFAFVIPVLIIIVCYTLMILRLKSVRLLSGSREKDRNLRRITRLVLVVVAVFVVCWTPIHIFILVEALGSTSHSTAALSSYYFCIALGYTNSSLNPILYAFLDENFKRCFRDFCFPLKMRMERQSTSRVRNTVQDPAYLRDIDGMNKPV
MOR, sequence (P35372 whole entry): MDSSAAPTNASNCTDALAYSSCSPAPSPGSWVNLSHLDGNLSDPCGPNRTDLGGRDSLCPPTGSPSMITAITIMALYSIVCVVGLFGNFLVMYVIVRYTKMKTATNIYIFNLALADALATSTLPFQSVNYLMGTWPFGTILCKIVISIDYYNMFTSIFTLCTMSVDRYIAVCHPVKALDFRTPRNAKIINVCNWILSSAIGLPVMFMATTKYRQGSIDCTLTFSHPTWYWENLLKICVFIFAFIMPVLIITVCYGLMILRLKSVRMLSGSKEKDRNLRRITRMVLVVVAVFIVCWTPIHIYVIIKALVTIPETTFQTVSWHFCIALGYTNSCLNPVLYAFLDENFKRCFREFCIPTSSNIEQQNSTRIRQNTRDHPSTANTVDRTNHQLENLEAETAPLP

Regarding `O=C(OCc1ccccc1)C(Cc1ccccc1)NC(=O)C1CC=CC2CCN(Cc3ccc(Cl)cc3)C(=O)C21` (mixture of isomers) [compound 11813], the Ki on KOR [1] came out at 1160 nM; on MOR, 1910 nM.
Consider `O=C(NCCc1ccccc1)[C@@H]1CC=C[C@@H]2CCN(Cc3ccc(Cl)c(Cl)c3)C(=O)[C@@H]21` (racemic) [compound 5084], for which the inhibitory constant (Ki) amounted to 4800 nM on KOR [1] and 5190 nM at MOR.
Consider `CCCCN1CC[C@H]2C=CC[C@@H](C(=O)NCCc3ccccc3)[C@H]2C1=O` (racemic) [compound 8918], for which, on KOR [1], the inhibitory constant (Ki) amounted to 3270 nM. For the same compound, at KOR [2], the “KOR agonist (average percent efficacy relative to cognate agonist)” value was 12.6%.
The matching figures for `CCCCNC(=O)[C@@H]1CC=C[C@@H]2CCN(CCCC)C(=O)[C@@H]21` (racemic) [compound 8919]: 2810 nM and 40.3%.
On to `O=C(NC1CCCCC1)[C@@H]1CC=C[C@@H]2CCN(Cc3ccccc3)C(=O)[C@@H]21` (racemic) [compound 8920, 2-Benzyl-N-cyclohexyl-1-oxo-1,2,3,4,4a,7,8,8a-octahydroisoquinoline-8-carboxamide], for which the Ki at KOR [1] came out at 298 nM. In addition, on KOR [2], the “KOR agonist (average percent efficacy relative to cognate agonist)” value turned out to be 94.2%.
The like results for `O=C(NC1CCCCC1)[C@@H]1CC=C[C@@H]2CCN(C3CCCCC3)C(=O)[C@@H]21` (racemic) [compound 8922] were, in that order, 167 nM and 8%.
With `CCCCN1CC[C@H]2C=CC[C@@H](C(=O)NC3CCCCC3)[C@H]2C1=O` (racemic) [compound 8923], on KOR [1], the inhibitory constant (Ki) stood at 1030 nM. The “KOR agonist (average percent efficacy relative to cognate agonist)” value at KOR [2] came to 67.6%.
The like results for `COc1ccc(CNC(=O)[C@@H]2CC=C[C@@H]3CCN(Cc4ccccc4)C(=O)[C@@H]32)cc1` (racemic) [compound 8924] were, in that order, 3730 nM and 18.8%.
The matching figures for `COc1ccc(CNC(=O)[C@@H]2CC=C[C@@H]3CCN(C4CCCCC4)C(=O)[C@@H]32)cc1` (racemic) [compound 8926]: 2690 nM and 29%.
The like results for `O=C(NCc1cccnc1)[C@@H]1CC=C[C@@H]2CCN(C3CCCCC3)C(=O)[C@@H]21` (racemic) [compound 8931] were, in that order, 552 nM and 67.7%.
Turning to `O=C(NCc1cccnc1)[C@@H]1CC=C[C@@H]2CCN(Cc3ccc(Cl)c(Cl)c3)C(=O)[C@@H]21` (racemic) [compound 8932], on KOR [1], the Ki came out at 693 nM. Besides, the “KOR agonist (average percent efficacy relative to cognate agonist)” value at KOR [2] is given as 74.6%.
The like results for `O=C(Nc1ccccc1)[C@@H]1CC=C[C@@H]2CCN(C3CC3)C(=O)[C@@H]21` (racemic) [compound 8938] were, in that order, 1400 nM and 21.8%.
On to `O=C(Nc1ccccc1)[C@@H]1CC=C[C@@H]2CCN(C3CCCCC3)C(=O)[C@@H]21` (racemic) [compound 8939], for which the Ki turned out to be 71 nM at KOR [1] and 8940 nM at DOR. Also, the “KOR agonist (average percent efficacy relative to cognate agonist)” value on KOR [2] is listed as 133.7%.
The matching figures for `CCCCN1CC[C@H]2C=CC[C@@H](C(=O)Nc3ccccc3)[C@H]2C1=O` (racemic) [compound 8940]: 677 nM, 6110 nM and 112.1%.
For `COc1ccc(NC(=O)[C@@H]2CC=C[C@@H]3CCN(Cc4ccccc4)C(=O)[C@@H]32)cc1` (racemic) [compound 8943], at KOR [1], the Ki came to 883 nM. The “KOR agonist (average percent efficacy relative to cognate agonist)” value on KOR [2] was 72.9%.
Turning to `COc1ccc(NC(=O)[C@@H]2CC=C[C@@H]3CCN(C4CCCCC4)C(=O)[C@@H]32)cc1` (racemic) [compound 8945], the Ki on KOR [1] was determined as 1790 nM; on DOR it was 5670 nM. Moreover, the “KOR agonist (average percent efficacy relative to cognate agonist)” value at KOR [2] stood at 54.3%.
In the case of `CCCCN1CC[C@H]2C=CC[C@@H](C(=O)Nc3ccc(OC)cc3)[C@H]2C1=O` (racemic) [compound 8946], at KOR [1], the Ki came to 5040 nM. The “KOR agonist (average percent efficacy relative to cognate agonist)” value at KOR [2] was found to be 23.5%.
The like results for `O=C(Nc1ccc(Cl)cc1Cl)[C@@H]1CC=C[C@@H]2CCN(C3CCCCC3)C(=O)[C@@H]21` (racemic) [compound 8949] were, in that order, 506 nM and 67.9%.
The matching figures for `CCCCN1CC[C@H]2C=CC[C@@H](C(=O)Nc3ccc(Cl)cc3Cl)[C@H]2C1=O` (racemic) [compound 8950]: 1140 nM and 72.9%.
On to `O=C(Nc1ccc(Cl)cc1Cl)[C@@H]1CC=C[C@@H]2CCN(Cc3ccc(Cl)c(Cl)c3)C(=O)[C@@H]21` (racemic) [compound 8951], for which, at KOR [1], the Ki worked out at 2440 nM. For the same compound, the “KOR agonist (average percent efficacy relative to cognate agonist)” value on KOR [2] was determined as 23.2%.
The like results for `O=C(Nc1ccc(Cl)c(C(F)(F)F)c1)[C@@H]1CC=C[C@@H]2CCN(C3CC3)C(=O)[C@@H]21` (racemic) [compound 8954] were, in that order, 493 nM and 66.4%.
The matching figures for `O=C(Nc1ccc(Cl)c(C(F)(F)F)c1)[C@@H]1CC=C[C@@H]2CCN(C3CCCCC3)C(=O)[C@@H]21` (racemic) [compound 8955]: 111 nM and 93.2%.
Consider `COc1ccc(CN2CC[C@H]3C=CC[C@@H](C(=O)Nc4ccc(Cl)c(C(F)(F)F)c4)[C@H]3C2=O)cc1OC` (racemic) [compound 8958], for which, at MOR, the Ki was 2540 nM.
Regarding `O=C(Nc1ccc(Cl)c(C(F)(F)F)c1)[C@@H]1CC=C[C@@H]2CCN(c3ccccc3)C(=O)[C@@H]21` (racemic) [compound 10825], the Ki on KOR [1] turned out to be 100 nM. Moreover, the “Emax values relative to U69593” value at KOR [2] turned out to be 82%.
Consider `O=C(Nc1cc(C(F)(F)F)ccc1Cl)C1CC=CC2CCN(C3CCCCC3)C(=O)C21` (racemic) [compound 11837], for which the results for the Ki on KOR [1] and on DOR were 94 nM and 8020 nM, respectively. Moreover, the “Emax values relative to U69593” value at KOR [2] is given as 106%.
In the case of `O=C(NCc1ccc(Cl)c(C(F)(F)F)c1)[C@@H]1CC=C[C@@H]2CCN(c3ccccc3)C(=O)[C@@H]21` (racemic) [compound 11862], the Ki at KOR [1] was determined as 98 nM. The “Emax values relative to U69593” value at KOR [2] came out at 81%.
`O=C(Nc1ccc(Br)c(C(F)(F)F)c1)[C@@H]1CC=C[C@@H]2CCN(c3ccccc3)C(=O)[C@@H]21` (racemic) [compound 11863]: on KOR [1], the Ki worked out at 12 nM. Moreover, on KOR [2], the “Emax values relative to U69593” value is 95%.
The matching figures for `O=C(Nc1ccc(Cl)cc1C(F)(F)F)[C@@H]1CC=C[C@@H]2CCN(c3ccccc3)C(=O)[C@@H]21` (racemic) [compound 11864]: 68 nM and 119%.
The like results for `Cc1cc(NC(=O)[C@@H]2CC=C[C@@H]3CCN(c4ccccc4)C(=O)[C@@H]32)ccc1Cl` (racemic) [compound 11866] were, in that order, 33.5 nM and 123%.
The like results for `O=C(Nc1cccc(Cl)c1)[C@@H]1CC=C[C@@H]2CCN(CC3CCCCC3)C(=O)[C@@H]21` (racemic) [compound 11888] were, in that order, 68 nM and 70%.

(Values after patent publication US8735391B2, “Synthesis of functionalized octahydro-isoquinolin-1-one-8-carboxamides, octahydro-isoquinolin-1-one-8-carboxylic esters and analogs, and therapeutic methods” (University of Kansas, priority 2008, dated 2014).)
